Source: patent US8927506B2, “Acetates of 2-deoxy monosaccharides with anticancer activity” (Board of Regents, The University of Texas System, priority 2008, dated 2015)

Assays:
[1] = test system: pancreatic Colo357-FG cell line; assay: In vitro activity in pancreatic Colo357-FG cell line; assay type: cell-based; details: COLO 357/FG; Colo357FG pancreatic cell line; concentration reducing cell viability to half
Source text: As used herein, reference to “IC50” is intended to refer to the concentration of a compound or composition that reduces the viability of cells to half the original level. In broader terms, IC50 can refer to half the maximal inhibitory concentration of a substance for inhibiting various biological processes.
In vitro activity in pancreatic Colo357-FG cell line is provided below in Table 1.

[2] = Preliminary biodistribution / pharmacokinetic study by oral gavage, 2-DG content in plasma and brain by LC/MS/MS; assay type: in vivo; details: CD-1 mice
Source text: Analytical methodologies (LC/MS/MS) were developed that are capable of quantifying these acetate sugars and the resulting liberation of 2-DG in various biomatrices (plasma and brain tissue). Using this analytical method preliminary biodistribution studies were undertaken in CD-1 mice to examine the pharmacokinetics of these novel agents.
Briefly, four animals per treatment group were given equivalent doses of either 2-DG, the compound of Example 6 (6-O-acetate of 2-DG) or the compound of Example 4 (4,6-di-O-acetate of 2-DG) by oral gavage using the same vehicle. Individual groups of animals were then sacrificed at 0.25, 0.5, 1, 2 and 4 hours following dose administration. From each animal plasma and brain tissues were harvested and then analyzed for 2-DG content by LC/mass spectrometry.

| IC50 [1] | highest attained brain tissue concentration of 2-DG ([2]; at 2 hrs after administration) | duration of active concentrations of 2-DG at the site of action (brain) relative to 2-DG alone ([2]; brain) | Structure (SMILES) |
| --- | --- | --- | --- |
| 17.2 mM | – | – | CC(=O)OCC1OC(OC(C)=O)CC(O)C1O (stereo not shown) [Example 3] |
| 1.7 mM | – | – | CC(=O)OCC1OC(O)CC(O)C1OC(C)=O [Example 4, 4,6-Di-O-acetyl-2-deoxy-D-glucose] |
| 1.6 mM | – | – | CC(=O)OCC1OC(O)CC(OC(C)=O)C1O (stereo not shown) [Example 5] |

More lines, now with the values behind:

| Structure (SMILES) | IC50 [1] | highest attained brain tissue concentration of 2-DG ([2]; at 2 hrs after administration) | duration of active concentrations of 2-DG at the site of action (brain) relative to 2-DG alone ([2]; brain) |
| --- | --- | --- | --- |
| CC(=O)OC1CC(O)C(O)C(CO)O1 [Example 1, 1-O-Acetyl-2-deoxy-D-glucose] | 11.9 mM | – | – |
| OCC1OC(O)CC(O)C1O (stereo not shown) [Example 2-DG, 2-deoxy-glucose, reference compound] | 9.7 mM | 12 μg/gm | – |
| CC(=O)OCC1OC(O)CC(O)C1O [Example 6, 6-O-acetyl-2-deoxy-D-glucose] | – | – | more than twice as long |
